Reference: patent publication US4980377A, “1-(aminophenyl)-2-aminopropanone derivatives” (Laboratoire L. Lafon, priority 1984, dated 1990)
“Also recorded” adds a separate entry of the source. Counter-ions that a name gives are not always drawn.

Columns and labels:
CNS = assay: Neuropsychopharmacological profile as a whole; type: in vivo, mice and rats
Protocol: (§1) In the neuropsychopharmacological study which follows, a solution of CRL 41 153 in distilled water (pH 1.5) was administered intraperitoneally in a volume of 20 ml/kg to male mice and 5 ml/kg to male rats.

mice [1] = assay: Interaction with oxotremorine; type: in vivo, mouse; settings: i.p.
Protocol: CRL 41 153 is administered to groups of 6 mice 0.5 hour before the intraperitoneal injection of 0.5 mg/kg of oxotremorine.

mice [2] = assay: Interaction with apomorphine in mice; type: in vivo, mouse; settings: i.p.
Protocol: Groups of 6 mice receive CRL 41 153 0.5 hour before the subcutaneous injection of 1 or 16 mg/kg of apomorphine.

mice [3] = assay: Interaction with barbital; type: in vivo, mouse; settings: i.p., barbital 220 mg/kg
Protocol: Half an hour after the administration of CRL 41 153, groups of 10 mice receive an intraperitoneal injection of barbital (220 mg/kg).

rats [4] = assay: Interaction with apomorphine in rats; type: in vivo, rat; settings: i.p.
Protocol: CRL 41 153 is administered to groups of 6 rats 0.5 hour before the subcutaneous injection of 0.5 mg/kg of apomorphine.

mice [5] = assay: Interaction with reserpine; type: in vivo, mouse; settings: i.p.
Protocol: Four hours after the intraperitoneal injection of 2.5 mg/kg of reserpine, groups of 6 mice receive CRL 41 153.

rats [6] = assay: Overall behavior and reactivities in rats; type: in vivo, rat; settings: dose not stated
Protocol: as §1
(§2) Groups of three animals are observed before and then 0.25 hour, 0.50 hour, 1 hour, 2 hours, 3 hours and 24 hours after the administration of CRL 41 153.

mice [7] = assay: Motility reduced by habituation to the enclosure; type: in vivo, mouse; settings: i.p.
Protocol: After they have stayed In the actimeters for 18 hours, (he mice (6 per dose, 12 control animals) receive CRL 41 153. They are immediately returned to their respective enclosures and, half an hour later, their motility is recorded for 30 minutes.

mice [8] = assay: Motility reduced by hypoxic aggression; type: in vivo, mouse; settings: i.p.
Protocol: Half an hour after they have received CRL 41 153, the mice (10 per dose, 20 control animals) are subjected to acute hypobaric anoxia [pressure reduction of 600 mm Hg (i.e. about 8×10^4 Pa) in 90 seconds; release of vacuum in 45 seconds] and are then placed in an actimeter, where their motility is recorded for 10 minutes.

mice [9] = assay: Spontaneous motility; type: in vivo, mouse; settings: i.p.
Protocol: 0.5 hour after they have received CRL 41 153, the mice (6 per dose, 12 control animals) are placed in an actimeter, where their motility is recorded for 30 minutes.

rats [10] = assay: Interaction with amphetamine; type: in vivo, rat; settings: i.p.
Protocol: Amphetamine (2 mg/kg) is injected intraperitoneally into groups of 6 rats 30 minutes after the administration of CRL 41 153. […] 4 mg/kg and 16 mg/kg, CRL 41 153 potentiates the intensity and duration of the stereotypies induced by amphetamine.

[11] = pH of solutions in distilled water; type: physicochemical
Protocol: The neuropsychopharmacological study was undertaken according to the procedures described above for CRL 41 153, CRL 41 213 being adminstered intraperitoneally, in solution in distilled water, in a volume of 20 ml/kg to male mice and a volume of 5 ml/kg to male rats, and the pH of the injected solution varying with the concentration of CRL 41 213 according to the data given in Table II below.

mice [12] = assay: Overall behavior and reactivities in mice; type: in vivo, mouse; settings: dose not stated
Protocol: as §1, §2

mice [13] = assay: Behavioral despair; type: in vivo, mouse; settings: forcibly immersed mice, i.p.
Source text: Half an hour after they have received CRL 41 153, groups of 6 mice are placed in a beaker filled with water to a height of 6 cm. The total period of immobility between the 2nd and 6th minutes following immersion is noted.

mice [14] = assay: Four plate test, traction and electric shock; type: in vivo, mouse; settings: i.p.
Protocol: The test is performed on groups of 10 mice 30 minutes after the administration of CRL 41 153.

[15] = test system: gravid White New Zealand female rabbits; assay: Teratogenicity in gravid White New Zealand rabbits; type: in vivo, rabbit; settings: day 5 to day 18 of gestation; for Affected foetuses, %: normal limit 1.5%
Protocol: The protocol used comprised administering to gravid White New Zealand female rabbits (weighing each about 2900-3000 grams before gestation) a daily dose of 0 (batch of control animals), 5,10 or 50 mg/kg of each product to be tested by gastrogavage from day 5 to day 18 of gestation, then carrying out a cesarean operation on day 29 of gestation in order to enumerate:
(i) the total number of foestuses, and
(ii) the total number of foestuses presenting at least one malformation.
To appreciate the results of such a protocol it must be noted that natural malformations may occur. Statistically, the percentage of foetuses presenting at least one malformation in any control batch of gravid White New Zealand female rabbits is lower than or equal to 1.5% with respect to the total number of foetuses.
To be precise in this protocol a malformation comprises at least one of the following cases: articular limb blocade, anorous foetus, deviated tail, shorter tail, skull deformation, exemcephalia.

immunity = assay: Immunological study (overall); settings: in vivo
[16] = Particular toxicity in grouped mice; settings: mouse, in vivo, ip
Protocol: The number of dead animals is noted after 1 hour, 2 hours, 3 hours, 4 hours and 24 hours.

SMILES	Antidepressant effects (overall) (CNS; conclusion of the tests)	Stimulant effects (overall) (CNS; conclusion of the tests)	α-adrenergic stimulant effects (overall) (CNS; conclusion of the tests)	Effect on hypothermic action of oxotremorine (mice [1])	Effect on hypothermia induced by apomorphine (mice [2])	Duration of the sleep induced by barbital (mice [3])	Effect on stereotypies induced by apomorphine (rats [4])	Effect on hypothermia induced by reserpine (mice [5])	Effect on ptosis induced by reserpine (mice [5])	Overall behavior: observed effects (summary) (rats [6])	Stereotype movements (summary) (rats [6])	Motor activity of mice accustomed to their enclosure (mice [7])	Motor recovery of mice after hypobaric hypoxia (mice [8])	Spontaneous motor activity (mice [9])	Effect on stereotypies induced by amphetamine (rats [10])	pH ([11]; 6 g/liter in distilled water)	pH ([11]; 50 g/liter in distilled water)	Overall behavior: observed effects (summary) (mice [12])	Stereotype movements (summary) (mice [12])	Period of immobility due to despair (mice [13])	also measured
CNC(C)C(=O)c1ccc(N)cc1 (stereo not shown) [CRL 41 218, 1-4-aminophenyl)-2-methylaminopropanone dihydrochloride]	antidepressant effects	stimulant effects	α-adrenergic stimulant effects	antagonism of the hypothermia	antagonism of the hypothermia	distinct antagonism of the sleep induced by barbital	potentiation of the stereotypies	antagonism of the hypothermia	antagonism of the ptosis induced by reserpine	excitation in mice and rats	presence of stereotype movements	resumption in the motor activity of mice accustomed to their enclosure	improvement in the motor recovery	increase in the motor activity	potentiation of the stereotypies	5.0	4.0	excitation in mice and rats	presence of stereotype movements	a reduction in the period of immobility	Anticonvulsant effects (overall) (CNS; conclusion of the tests): anticonvulsant effects; Peripheral α-adrenergic signs (mydriasis, salivation, lacrimation, exophthalmos) (CNS; species and dose not stated, dihydrochloride): mydriasis; also recorded: salivation; pH ([11]; 13 g/liter in distilled water): 4.5; pH ([11]; ≤3 g/liter in distilled water): 5.5; Effect on convulsant effects of electric shock (mice [14]): antagonism, at strong doses, of the convulsant effects of electric shock; Affected foetuses, number ([15]; 50 mg/kg daily): 1; Total foetuses (live) ([15]; 50 mg/kg daily): 79; Affected foetuses, % ([15]; 50 mg/kg daily): 1.26%
CC(C(=O)c1ccc(N)cc1)N1CCCCC1 (stereo not shown) [CRL 41 241]	antidepressant-type effect	large stimulant component	an α-adrenergic stimulation component	antagonism of the hypothermia	antagonism of the hypothermia	a reduction in the duration of the sleep induced by barbital	potentiation of the stereotypies	antagonism of the hypothermia	a decrease in the ptosis induced by reserpine	excitation with hyperactivity in mice and rats; also recorded: moderate mydriasis in mice and rats	the presence of stereotype movements in mice and rats	resumption in the motor activity of mice accustomed to their enclosure	improvement in the motor recovery	an increase in the spontaneous motor activity of mice	potentiation of the stereotypies	2.0	1.0	excitation with hyperactivity in mice and rats; also recorded: moderate mydriasis in mice and rats	the presence of stereotype movements in mice and rats	a reduction in the Period of immobility	Effect on trembling induced by oxotremorine (mice [1]): a very distinct reduction in the intensity of the trembling due to oxotremorine; pH ([11]; 0.3 g/liter in distilled water): 5.0; pH ([11]; 0.5 g/liter in distilled water): 4.5; pH ([11]; 1 g/liter in distilled water): 3.5; pH ([11]; 2 g/liter in distilled water): 3.0; pH ([11]; 3 g/liter in distilled water): 2.5; pH ([11]; 26 g/liter in distilled water): 1.5; pH ([11]; ≤0.05 g/liter in distilled water): 5.5; Effect on convulsant effects of electric shock (mice [14]): total antagonism of the convulsant effect of electric shock; Number of punished passes in the four plate test (mice [14]): a moderate increase in the number of punished passes in the 4 plate test on mice (at high doses); Affected foetuses, number ([15]; 10 mg/kg daily): 0; Total foetuses (live) ([15]; 10 mg/kg daily): 88; Affected foetuses, % ([15]; 10 mg/kg daily): 0%
CC(C(=O)c1ccc(N)cc1)N1CCSCC1 (stereo not shown) [CRL 41 248]	–	–	–	–	–	–	–	–	–	–	–	–	–	–	–	–	1.5	–	–	–	pH ([11]; 0.05 g/liter in distilled water): 5.0; pH ([11]; 0.1 g/liter in distilled water): 4.5; pH ([11]; 0.2 g/liter in distilled water): 4.0; pH ([11]; 0.4 g/liter in distilled water): 3.5; pH ([11]; 1.2-0.8 g/liter in distilled water): 3.0; pH ([11]; 3.2 g/liter in distilled water): 2.5; pH ([11]; 6.4 g/liter in distilled water): 2.0; pH ([11]; ≤0.025 g/liter in distilled water): 5.5; Immunological effect (overall) (immunity): immunostimulant or immunomodulating effects; Affected foetuses, number ([15]; 10 mg/kg daily): 1; Total foetuses (live) ([15]; 10 mg/kg daily): 93; Affected foetuses, % ([15]; 10 mg/kg daily): 1.07%
COC(=O)C(c1ccccc1)C1CCCCN1 (stereo not shown) [methylphenidate, reference compound]	–	–	–	–	–	–	–	–	–	–	–	–	–	–	–	–	–	–	–	–	selectivity ratio [16]: ~6
CN1Cc2c(N)cccc2C(c2ccccc2)C1 (stereo not shown) [nomifensin, reference compound]	–	–	–	–	–	–	–	–	–	–	–	–	–	–	–	–	–	–	–	–	selectivity ratio [16]: ~4
